Data on three compounds can be found in patent US20030104099A1, “Mineral delivery systems and methods” (priority 2001, published 2003).

For data set [1] the following is noted: for solids in 25 grams of the filtered solution after drying: 2 grams acid + 2 grams calcium carbonate in 50 grams distilled water, four hours, 25 grams dried; for water solubility at ambient: distilled water. Here is the method: To a 250 ml beaker, 2 grams of adipic acid powder is dissolved in 50 grams of distilled water. Then, 2 grams of calcium carbonate powder (Vicron 25-11 FG from Specilaty Minerals, Inc.) are added. […] After four hours, the slurry is filtered through a filter paper.
To a 250 ml beaker, 2 grams of tartaric acid powder is dissolved in 50 grams of distilled water. Then, 2 grams of calcium carbonate powder are added. […] After four hours, the slurry is filtered through a filter paper.
To a 250 ml beaker, 2 grams of malic acid powder is dissolved in 50 grams of distilled water. Then, 2 grams of calcium carbonate powder are added. […] After four hours, the slurry is filtered through a filter paper.
To a 250 ml beaker, 2 grams of citric acid powder is dissolved in 50 grams of distilled water. Then, 2 grams of calcium carbonate powder are added. […] After four hours, the slurry is filtered through a filter paper.
To a 250 ml beaker, 2 grams of fumaric acid powder is dissolved in 50 grams of distilled water. Then, 2 grams of calcium carbonate powder are added. […] After four hours, the slurry is filtered through a filter paper.

For data set [2] the following is noted: 120 grams distilled water, 3 grams acid, 39° C., 50 rpm, 30 minutes mixing, dried at 110° C.

Where two headings read alike, the source gives them in different places.

For `O=C([O-])/C=C/C(=O)[O-].[Ca+2]` [Calcium fumarate], the solubility in methanol entry is given as “not soluble” (solids from ALPHA GRANDE bubble gum base fluid) and “not soluble” (solids from DREYCO gum base fluid). Moreover, the “solids in 25 grams of the filtered solution after drying” value (shortened to “solids in 25 grams”) in data set [1] is recorded as 0.6 grams. The “water solubility at ambient” value in data set [1] is on record as 2.4%. Further, the “soluble calcium salt contained in the fluid” value in data set [2] (75 grams ALPHA GRANDE bubble gum base) worked out at 1.19%; in data set [2] (75 grams DREYCO gum base) it was 1.46%.

Take `O=C([O-])CC(O)C(=O)[O-].[Ca+2]` (stereo not drawn) [Calcium malate]: in data set [1], the “solids in 25 grams” value was 0.5 grams and the “water solubility at ambient” value turned out to be 2.0%.

Take `O=C([O-])C(O)C(O)C(=O)[O-].[Ca+2]` (stereo not drawn) [Calcium tartrate]: in data set [1], the “solids in 25 grams” value worked out at 0.15 grams.
